According to patent US20240309043A1, “THERAPEUTICALLY ACTIVE STEROIDAL DERIVATIVES” (Organon R&D Finland Ltd., priority 2017, published 2024):

Columns and labels:
[1] = molecular target: T1, recombinant human 17β-HSD2 (Homo sapiens, UniProt P37059); assay: Inhibition of recombinant human 17β-HSD2; format: biochemical; conditions: inhibitor 1 μM; 50 nM estradiol, 1 mM NADH, 30 min RT
T1 construct: made in house; host or cells: Sd9 (Sf9) insect cells, baculovirus (Bac to Bac Expression System)
T1 sequence (P37059 1-387): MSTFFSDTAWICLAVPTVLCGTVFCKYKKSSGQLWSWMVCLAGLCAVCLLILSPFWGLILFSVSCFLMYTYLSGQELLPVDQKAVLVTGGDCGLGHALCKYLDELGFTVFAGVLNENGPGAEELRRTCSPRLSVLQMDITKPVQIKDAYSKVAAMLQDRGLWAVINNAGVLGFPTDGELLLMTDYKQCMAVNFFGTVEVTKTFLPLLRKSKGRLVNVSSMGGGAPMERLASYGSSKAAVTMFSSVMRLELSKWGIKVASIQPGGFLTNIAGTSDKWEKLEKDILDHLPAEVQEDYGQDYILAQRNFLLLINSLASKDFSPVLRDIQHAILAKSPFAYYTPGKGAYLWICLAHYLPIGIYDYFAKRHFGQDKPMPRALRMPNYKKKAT
How it was run: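 Sf9 baculovirus-expressed enzyme membrane extract (4 μg/ml) incubated 30 min at RT in 20 mM KH2PO4 pH 8.5 with 50 nM estradiol (³H-tracer) and 1 mM NADH, inhibitor at 1 μM or 0.1 μM, 1% DMSO. TCA-stopped; estradiol-to-estrone conversion by radio-HPLC, % inhibition = 100 − % conversion.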

[2] = molecular target: T2, recombinant human 17β-HSD1 (Homo sapiens, UniProt P14061); assay: Inhibition of recombinant human 17β-HSD1; format: biochemical; conditions: inhibitor 100 nM; 30 nM estrone, 1 mM NADPH, 30 min RT
T2 construct: made in house; host or cells: Sd9 (Sf9) insect cells, baculovirus (Bac to Bac Expression System)
T2 sequence (P14061 1-328): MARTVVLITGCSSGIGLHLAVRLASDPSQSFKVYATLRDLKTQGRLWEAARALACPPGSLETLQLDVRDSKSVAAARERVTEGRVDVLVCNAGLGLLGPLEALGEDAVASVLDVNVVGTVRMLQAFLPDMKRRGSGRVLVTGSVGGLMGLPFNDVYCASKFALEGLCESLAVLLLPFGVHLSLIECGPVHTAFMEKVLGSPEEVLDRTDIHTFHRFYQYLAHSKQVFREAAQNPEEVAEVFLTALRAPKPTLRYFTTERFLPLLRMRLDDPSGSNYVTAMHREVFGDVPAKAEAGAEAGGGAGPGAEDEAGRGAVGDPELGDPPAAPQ
How it was run: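 Microsomes from Sf9 cells expressing human 17β-HSD1 (1 μg/ml) were incubated for 30 min at RT in 20 mM KH2PO4 pH 7.4 with 30 nM ³H-estrone, 1 mM NADPH and inhibitor at 1 μM or 0.1 μM (1% DMSO). Estrone-to-estradiol conversion was measured by radio-HPLC after TCA stop, and % inhibition was taken as 100 − % conversion.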

human hepatocytes = assay: Metabolic stability assay, human hepatocyte incubations; format: in vitro ADME; conditions: 37° C., 0-60 min, half life
Protocol: The in vitro metabolic stability of the compounds of the invention was determined for exemplified compounds using human hepatocyte incubations. Study compounds were incubated 0, 10, 20, 40 and 60 min at 37° C. Samples were collected at all time points and compounds were detected by LC-MS/MS analysis. The percent compound remaining is calculated by comparing the peak area of the parent compound at each time point to time zero. In vitro metabolic stability was determined as half life (T½), which was determined by regression analysis of the percent parent disappearance vs. time curve. The results are summarized in Table2.

[3] = system: HSD1 enzyme that is expressed in rabbit placenta tissue; assay: Inhibition of E1 to E2 conversion in rabbit placenta tissue homogenate; format: biochemical; conditions: inhibitor 100 nM, 30 nM estrone, 30 min

Row | SMILES | inhibition at 1 µM [1] | inhibition at 0.1 µM [2] | Human hepatocytes MetStab T1_2 min (human hepatocytes) | Rabbit placenta inhibition % @100 nM [3]
1 | Cc1cc(NC(=O)CC[C@@H]2C/C(=N\O)[C@@]3(C)CCC4c5cccc(F)c5CCC4C23)no1 (stereo partly drawn) [Compound 2, 3-((13S,15R,E)-4-fluoro-17-(hydroxyimino)-13-methyl-7,8,9,11,12,13,14,15,16,17-decahydro-6H-cyclopenta[a]phenanthren-15-yl)-N-(5-methylioxazol-3-yl)propanamide] | 9% | 83% | 38 min | 75%
2 | COc1ccc(NC(=O)CC[C@@H]2C/C(=N\O)[C@@]3(C)CCC4c5cccc(F)c5CCC4C23)nn1 (stereo partly drawn) [Compound 4, 3-((13S,15R,E)-4-fluoro-17-(hydroxyimino)-13-methyl-7,8,9,11,12,13,14,15,16,17-decahydro-6H-cyclopenta[a]phenanthren-15-yl)-N-(6-methoxypyridazin-3-yl)propanamide] | 13% | 87% | 42 min | –
3 | COc1ccc(NC(=O)CC[C@@H]2C/C(=N\O)[C@@]3(C)CCC4c5cccc(F)c5CCC4C23)nc1 (stereo partly drawn) [Compound 6, 3-((13S,15R,E)-4-fluoro-17-(hydroxyimino)-13-methyl-7,8,9,11,12,13,14,15,16,17-decahydro-6H-cyclopenta[a]phenanthren-15-yl)-N-(5-methoxypyridin-2-yl)propanamide] | 1% | 92% | 67 min | 79%
4 | C[C@]12CCC3c4cccc(F)c4CCC3C1[C@H](CCC(=O)Nc1ccc(F)cn1)C/C2=N\O (stereo partly drawn) [Compound 8, 3-((13S,15R,E)-4-fluoro-17-(hydroxyimino)-13-methyl-7,8,9,11,12,13,14,15,16,17-decahydro-6H-cyclopenta[a]phenanthren-15-yl)-N-(5-fluoropyridin-2-yl)propanamide] | 2% | 90% | 52 min | 37%
5 | C[C@]12CCC3c4cccc(F)c4CCC3C1[C@H](CCC(=O)Nc1cccnn1)C/C2=N\O (stereo partly drawn) [Compound 20] | 0% | 80% | 17 min | 50%
6 | CC(C)c1ccc(NC(=O)CC[C@@H]2C/C(=N\O)[C@@]3(C)CCC4c5ccc(F)cc5CCC4C23)nc1 (stereo partly drawn) [Compound 42, 3-((13S,15R,E)-3-fluoro-17-(hydroxyimino)-13-methyl-7,8,9,11,12,13,14,15,16,17-decahydro-6H-cyclopenta[a]phenanthren-15-yl)-N-(5-isopropylpyridin-2-yl)propanamide] | -5% | 96% | 78 min | 41%
7 | COc1ccnc(NC(=O)CC[C@@H]2C/C(=N\O)[C@@]3(C)CCC4c5ccc(Cl)cc5CCC4C23)c1 (stereo partly drawn) [Compound 56, 3-((13S,15R,E)-3-chloro-17-(hydroxyimino)-13-methyl-7,8,9,11,12,13,14,15,16,17-decahydro-6H-cyclopenta[a]phenanthren-15-yl)-N-(4-methoxypyridin-2-yl)propanamide] | 3% | 63% | 334 min | 0%
8 | COc1ccc(NC(=O)CC[C@@H]2C/C(=N\O)[C@@]3(C)CCC4c5ccccc5CCC4C23)nc1 (stereo partly drawn) [Compound 84] | -15% | 73% | 35 min | 35%
9 | C[C@]12CCC3c4ccccc4CCC3C1[C@H](CCC(=O)Nc1ccc(N3CCOCC3)cn1)C/C2=N\O (stereo partly drawn) [Compound 90, 3-((13S,15R,E)-17-(hydroxyimino)-13-methyl-7,8,9,11,12,13,14,15,16,17-decahydro-6H-cyclopenta[a]phenanthren-15-yl)-N-(5-morpholinopyridin-2-yl)propanamide] | -6% | 82% | 83 min | 47%
10 | CC(C)c1ccc(NC(=O)CC[C@@H]2C/C(=N\O)[C@@]3(C)CCC4c5ccccc5CCC4C23)nc1 (stereo partly drawn) [Compound 96, 3-((13S,15R,E)-17-(hydroxyimino)-13-methyl-7,8,9,11,12,13,14,15,16,17-decahydro-6H-cyclopenta[a]phenanthren-15-yl)-N-(5-isopropylpyridin-2-yl)propanamide] | -4% | 84% | 46 min | 51%
11 | C[C@]12CCC3c4ccc(Cl)cc4CCC3C1[C@H](CCC(=O)Nc1ncc(F)cc1F)C/C2=N\O (stereo partly drawn) [Compound 164, 3-((13S,15R,E)-3-chloro-17-(hydroxyimino)-13-methyl-7,8,9,11,12,13,14,15,16,17-decahydro-6H-cyclopenta[a]phenanthren-15-yl)-N-(3,5-difluoropyridin-2-yl)propanamide] | 11% | 40% | – | 5%
12 | C[C@]12CCC3c4ccccc4CCC3C1[C@H](CCC(=O)Nc1ncc(F)cc1F)C/C2=N\O (stereo partly drawn) [Compound 166, N-(3,5-difluoropyridin-2-yl)-3-((13S,15R,E)-17-(hydroxyimino)-13-methyl-7,8,9,11,12,13,14,15,16,17-decahydro-6H-cyclopenta[a]phenanthren-15-yl)propanamide] | 7% | 56% | – | 3%
13 | C[C@]12CCC3c4ccccc4CCC3C1[C@H](CCC(=O)Nc1cccc(F)n1)C/C2=N\O (stereo partly drawn) [Compound 168, N-(6-fluoropyridin-2-yl)-3-((13S,15R,E)-17-(hydroxyimino)-13-methyl-7,8,9,11,12,13,14,15,16,17-decahydro-6H-cyclopenta[a]phenanthren-15-yl)propanamide] | 9% | 26% | – | 6%
14 | C[C@]12CCC3c4ccc(Cl)cc4CCC3C1[C@H](CCC(=O)Nc1cccc(F)n1)C/C2=N\O (stereo partly drawn) [Compound 170, 3-((13S,15R,E)-3-chloro-17-(hydroxyimino)-13-methyl-7,8,9,11,12,13,14,15,16,17-decahydro-6H-cyclopenta[a]phenanthren-15-yl)-N-(6-fluoropyridin-2-yl)propanamide] | 12% | 34% | – | 13%
15 | CN(C)C(=O)c1ccc(NC(=O)CC[C@@H]2C/C(=N\O)[C@@]3(C)CCC4c5ccc(Cl)cc5CCC4C23)nc1 (stereo partly drawn) [Compound 172, 6-(3-((13S,15R,E)-3-chloro-17-(hydroxyimino)-13-methyl-7,8,9,11,12,13,14,15,16,17-decahydro-6H-cyclopenta[a]phenanthren-15-yl)propanamido)-N,N-dimethylnicotinamide] | 9% | 45% | – | 9%
16 | C[C@]12CCC3c4ccc(Cl)cc4CCC3C1[C@H](CCC(=O)Nc1cc3c([nH]c1=O)CCCC3)C/C2=N\O (stereo partly drawn) [Compound 174, 3-((13S,15R,E)-3-chloro-17-(hydroxyimino)-13-methyl-7,8,9,11,12,13,14,15,16,17-decahydro-6H-cyclopenta[a]phenanthren-15-yl)-N-(2-oxo-1,2,5,6,7,8-hexahydroquinolin-3-yl)propanamide] | 12% | 84% | – | 10%
17 | CN(C)C(=O)c1ccc(NC(=O)CC[C@@H]2C/C(=N\O)[C@@]3(C)CCC4c5cccc(F)c5CCC4C23)nc1 (stereo partly drawn) [Compound 176, 6-(3-((13S,15R,E)-4-fluoro-17-(hydroxyimino)-13-methyl-7,8,9,11,12,13,14,15,16,17-decahydro-6H-cyclopenta[a]phenanthren-15-yl)propanamido)-N,N-dimethylnicotinamide] | 5% | 87% | – | 34%
